Results from patent US9115137B2, “2,3,4,5-tetrahydro-1H-pyrido[4,3-B]indole compounds and methods of use thereof” (priority 2008, dated 2015).

molecular target: T1, human recombinant serotonin (5-Hydroxytryptamine) 5-HT2A receptor (Homo sapiens, UniProt P28223); experiment: Serotonin 5-HT2A radioligand binding ([3H]Ketanserin); settings: compound at 1 μM; CHO-K1 cells; read-out: Serotonin (1 μM) 5-HT2A, percent inhibition of specific binding
T1 construct: expressed in transfected cells; host or cells: CHO-K1 cells
Method: To evaluate in radioligand binding assays the activity of compounds of the invention, human recombinant serotonin (5-Hydroxytryptamine) 5-HT2A receptor expressed in Chinese hamster ovary (CHO-K1) cells (Bonhaus, D. W. et al. Br. J. Pharmacol. 115:622, 1995; Saucier, C. and Albert, P. R., J. Neurochem. 68:1998, 1997) in a 50 mM Tris-HCl buffer, pH 7.4, was used. Compounds of the invention were incubated with 0.5 nM [^3H]Ketanserin for 60 minutes at 25° C. Non-specific binding was estimated in the presence of 1 μM Mianserin. Receptor proteins were filtered and washed, the filters were then counted to determine [^3H] Ketanserin specifically bound. Compounds were screened at 1 μM or lower, using 1% DMSO as vehicle. Biochemical assay results are presented as the percent inhibition of specific binding in Table 7.

T1 sequence (P28223 whole entry): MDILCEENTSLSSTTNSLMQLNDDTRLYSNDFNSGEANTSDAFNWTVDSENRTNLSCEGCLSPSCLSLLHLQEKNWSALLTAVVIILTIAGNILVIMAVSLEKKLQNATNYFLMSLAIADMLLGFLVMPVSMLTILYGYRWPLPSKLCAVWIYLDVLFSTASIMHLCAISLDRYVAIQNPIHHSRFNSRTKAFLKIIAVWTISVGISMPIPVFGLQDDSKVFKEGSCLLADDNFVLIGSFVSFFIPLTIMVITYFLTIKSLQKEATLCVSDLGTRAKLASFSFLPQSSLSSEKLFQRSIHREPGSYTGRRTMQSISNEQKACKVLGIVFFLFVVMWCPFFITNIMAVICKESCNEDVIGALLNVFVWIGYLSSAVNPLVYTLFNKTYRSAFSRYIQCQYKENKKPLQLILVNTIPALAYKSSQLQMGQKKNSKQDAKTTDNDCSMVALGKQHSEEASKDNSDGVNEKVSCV

Question: With `Cc1ccc2c(c1)c1c(n2CCC#N)CCN(C)C1` [CD92, 3-(2,8-dimethyl-3,4-dihydro-1H-pyrido[4,3-b]indol-5(2H)-yl)propanenitrile] as the molecule, how does the inhibition at 1 µM read?
Answer: 67%

Question: Which inhibition at 1 µM does the source give for `CN1CCc2c(c3cc(Cl)ccc3n2CCC#N)C1` [CD94, 3-(8-chloro-2-methyl-3,4-dihydro-1H-pyrido[4,3-b]indol-5(2H)-yl)propanenitrile] here?
Answer: 60%

Question: Which inhibition at 1 µM does the source give for `CN1CCc2c(c3cc(Cl)ccc3n2CC(=O)OC(C)(C)C)C1` [Compound 12, tert-butyl 2-(8-chloro-1,2,3,4-tetrahydro-2-methylpyrido[4,3-b]indol-5-yl)acetate] here?
Answer: 81%

Question: `CN1CCc2c(c3cc(Cl)ccc3n2CC(=O)OCC2CCCCC2)C1` [Compound 14, cyclohexylmethyl 2-(8-chloro-1,2,3,4-tetrahydro-2-methylpyrido[4,3-b]indol-5-yl)acetate] was tested. Which inhibition at 1 µM did it give?
Answer: 103%

Question: With `CC(C)OC(=O)CCn1c2c(c3cc(Cl)ccc31)CN(C)CC2` [Compound 17, isopropyl 3-(8-chloro-1,2,3,4-tetrahydro-2-methylpyrido[4,3-b]indol-5-yl)propanoate] as the molecule, how does the inhibition at 1 µM read?
Answer: 84%

Question: How did the inhibition at 1 µM turn out when `CN1CCc2c(c3cc(Cl)ccc3n2CCC(=O)OCc2ccccc2)C1` [Compound 19, benzyl 3-(8-chloro-1,2,3,4-tetrahydro-2-methylpyrido[4,3-b]indol-5-yl)propanoate] was run?
Answer: 95%

Question: Which inhibition at 1 µM does the source give for `CN1CCc2c(c3cc(Cl)ccc3n2CCC(=O)OCC2CCCCC2)C1` [Compound 20, cyclohexylmethyl 3-(8-chloro-1,2,3,4-tetrahydro-2-methylpyrido[4,3-b]indol-5-yl)propanoate] here?
Answer: 102%

Question: How did the inhibition at 1 µM turn out when `CN1CCc2c(c3cc(Cl)ccc3n2CCC(=O)OC2CCCC2)C1` [Compound 21, cyclopentyl 3-(8-chloro-1,2,3,4-tetrahydro-2-methylpyrido[4,3-b]indol-5-yl)propanoate] was run?
Answer: 98%

Question: Which inhibition at 1 µM does the source give for `Cc1ccc2c(c1)c1c(n2CC(=O)NC(C)(C)C)CCN(C)C1` [Compound 24, N-tert-butyl-2-(1,2,3,4-tetrahydro-2,8-dimethylpyrido[4,3-b]indol-5-yl)acetamide] here?
Answer: 9%

Question: `Cc1ccc2c(c1)c1c(n2CC(=O)NCC2CCCCC2)CCN(C)C1` [Compound 26, N-(cyclohexylmethyl)-2-(1,2,3,4-tetrahydro-2,8-dimethylpyrido[4,3-b]indol-5-yl)acetamide] was tested. Which inhibition at 1 µM did it give?
Answer: 89%

Question: With `Cc1ccc2c(c1)c1c(n2CCC(=O)NC(C)(C)C)CCN(C)C1` [Compound 28] as the molecule, how does the inhibition at 1 µM read?
Answer: 17%

Question: For `Cc1ccc2c(c1)c1c(n2CCC(=O)Nc2ccccc2)CCN(C)C1` [Compound 29], which inhibition at 1 µM is on record?
Answer: 96%

Question: How did the inhibition at 1 µM turn out when `Cc1ccc2c(c1)c1c(n2CCC(N)=O)CCN(C)C1` [Compound 46, 3-(1,2,3,4-tetrahydro-2,8-dimethylpyrido[4,3-b]indol-5-yl)propanamide] was run?
Answer: 33%

Question: How did the inhibition at 1 µM turn out when `Cc1ccc2c(c1)c1c(n2CCC(=O)NC(C)C)CCN(C)C1` [Compound 53] was run?
Answer: 39%

Question: `Cc1ccc2c(c1)c1c(n2CCNC(=O)c2ccc(F)cc2)CCN(C)C1` [Compound 66, 4-fluoro-N-(2-(1,2,3,4-tetrahydro-2,8-dimethylpyrido[4,3-b]indol-5-yl)ethyl)benzamide] was tested. Which inhibition at 1 µM did it give?
Answer: 98%

Question: `CN1CCc2c(c3cc(Cl)ccc3n2CCC(N)=O)C1` [Compound 67, 3-(8-chloro-1,2,3,4-tetrahydro-2-methylpyrido[4,3-b]indol-5-yl)propanamide] was tested. Which inhibition at 1 µM did it give?
Answer: 55%

Question: With `Cc1ccc2c(c1)c1c(n2CCNC(=O)C2CCCC2)CCN(C)C1` [Compound 68, N-(2-(1,2,3,4-tetrahydro-2,8-dimethylpyrido[4,3-b]indol-5-yl)ethyl)cyclopentanecarboxamide] as the molecule, how does the inhibition at 1 µM read?
Answer: 77%

Question: How did the inhibition at 1 µM turn out when `Cc1ccc2c(c1)c1c(n2CCNC(=O)c2ccncc2C)CCN(C)C1` [Compound 69, N-(2-(1,2,3,4-tetrahydro-2,8-dimethylpyrido[4,3-b]indol-5-yl)ethyl)-3-methylpyridine-4-carboxamide] was run?
Answer: 30%
